In US20240376148A1, “MEDICAMENT FOR INHIBITING DIETARY OBESITY AND POLYPEPTIDE USED THEREFOR” (INSTITUTE OF ZOOLOGY, CHINESE ACADEMY OF SCIENCES, priority 2022, published 2024):

Legend:
[1] = Short-term feed intake experiment of SPF rats; format: in vivo; settings: after 8 weeks of treatment, p<0.05
Text: A total of 2 treatments were set up, with 5 rats in each treatment, and each treatment was subjected to different feeding treatments, specifically as follows:
HFD group (i.e. high-fat diet group): 8 rats were fed with high-fat diet, the high-fat diet used was rodent feed (containing 60 kcal % fat, D12492), free diet and drinking water for 8 weeks.
D3 group (i.e. high-fat diet+D3 medicine intragastric administration group): 10 rats were fed with high-fat diet, free diet and drinking water. Intragastrically administrated with HD (choose D3), 0.5 mg-2 mg/Kg body weight, 0.5 ml, once/day for 8 weeks.
According to the above treatment, it was carried out for 8 weeks, and then within 1 week, the rats were starved for one day and then given feed, and the feed intake of the animals in the following day was recorded. That is, food weights were recorded every other day (4 separate measurements) and the average daily intake was determined for each 2-day period and calculated for each individual during the one-week measurement period. The obtained were the results of the short-term intake statistics (unit: g/only/day).

[2] = SPF mice feeding experiment (high-fat diet); format: in vivo, C57/B16J mice
Procedure: C57/B16J mice were used in the SPF mice experiment. At the beginning of the experiment, C57/B16J mice were 4 weeks old, and each weighed 15±1 g. They were raised in a room with suitable temperature and humidity control, and the light/dark cycle was 12 hours, free diet and drinking water, and fed with standard laboratory feed (also known as growth and reproduction feed, item number SPFSLFZ003, product of SPF (Beijing) Experimental Animal Technology Co., Ltd.). After one week of adaptation, they were randomly assigned to a cage, 4-6 mice per cage.
A total of 12 treatments were set up, each with 2 cages of C57/B16J mice, and each treatment was subjected to different feeding treatments, specifically as follows:
NC group (i.e. normal diet group): fed with standard laboratory feed (also known as growth and reproduction feed, SPFSLFZ003), free diet and drinking water, each intragastrically administrated with 0.2 ml solvent daily for 8 weeks.
HFD group (i.e. high-fat diet group): fed with high-fat diet, the high-fat diet used was rodent feed (containing 60% fat, D12492, formula reference Le Roy, T., et al. Dysosmobacter welbionis is a newly isolated human commensal bacterium preventing diet-induced obesity and metabolic disorders in mice. Gut (2021).), free diet and drinking water, each intragastrically administrated with 0.2 ml solvent daily for 8 weeks.
D1 group (i.e. high-fat diet+D1 intragastric administration group): fed with high-fat diet, free diet and drinking water. Intragastrically administrated with synthetic D1, 0.75 mg-3 mg/Kg body weight, 0.2 ml, once/day for 8 weeks.
D2 group (i.e. high-fat diet+D2 intragastric administration group): fed with high-fat diet, free diet and drinking water. Intragastrically administrated with synthetic D2, 0.75 mg-3 mg/Kg body weight, 0.2 ml, once/day for 8 weeks.
D3 group (i.e. high-fat diet+D3 intragastric administration group): fed with high-fat diet, free diet and drinking water. Intragastrically administrated with synthetic D3, 0.75 mg-3 mg/Kg body weight, 0.2 ml, once/day for 8 weeks.
D4 group (i.e. high-fat diet+D4 intragastric administration group): fed with high-fat diet, free diet and drinking water. Intragastrically administrated with synthetic D4, 0.75 mg-3 mg/Kg body weight, 0.2 ml, once/day for 8 weeks.
D5 group (i.e. high-fat diet+D5 intragastric administration group): fed with high-fat diet, free diet and drinking water. Intragastrically administrated with synthetic D5, 0.75 mg-3 mg/Kg body weight, 0.2 ml, once/day for 8 weeks.
D6 group (i.e. high-fat diet+D6 intragastric administration group): fed with high-fat diet, free diet and drinking water. Intragastrically administrated with synthetic D6, 0.75 mg-3 mg/Kg body weight, 0.2 ml, once/day for 8 weeks.
D7 group (i.e. high-fat diet+D7 intragastric administration group): fed with high-fat diet, free diet and drinking water. Intragastrically administrated with synthetic D7, 0.75 mg-3 mg/Kg body weight, 0.2 ml, once/day for 8 weeks.
D8 group (i.e. high-fat diet+D8 intragastric administration group): fed with high-fat diet, free diet and drinking water. Intragastrically administrated with synthetic D8, 0.75 mg-3 mg/Kg body weight, 0.2 ml, once/day for 8 weeks.
D9 group (i.e. high-fat diet+D9 intragastric administration group): fed with high-fat diet, free diet and drinking water. Intragastrically administrated with synthetic D9, 0.75 mg-3 mg/Kg body weight, 0.2 ml, once/day for 8 weeks.
D10 group (i.e. high-fat diet+D10 intragastric administration group): fed with high-fat diet, free diet and drinking water. Intragastrically administrated with synthetic D10, 0.75 mg-3 mg/Kg body weight, 0.2 ml, once/day for 8 weeks.
The feed intake was tracked every week. After the experiment, the mice were weighed and photographs were taken to compare the body size of the mice. After that, the mice were killed by cervical dislocation. […]

Guca2b = test: qPCR of Guca2b mRNA in the ileum of rats; format: in vivo
Procedure: qPCR gene expression was carried out using the StepOnePlus real-time fluorescent quantitative PCR system. Three technical replicates were performed for each sample, and the identity and purity of the amplified product were checked by analyzing the melting curve at the end of the amplification. Gene expression results were referenced to the percent expression of each gene normalized to glyceraldehyde-3-phosphate dehydrogenase (GAPDH).

RTRYCRTGR [D3]
daily feed intake (short-term) vs HFD group [1]: significantly lower
body size compared with the HFD group ([2]; 8 weeks): smaller than that of the HFD group
subcutaneous and visceral fat weight (inguinal subcutaneous, epididymis, perirenal) vs HFD group ([2]; 8 weeks): significantly lower than that of the HFD group
weekly feed intake vs control HFD group ([2]; after 3-4 weeks): significant difference in feed intake
body weight decrease compared with the HFD group ([2]; intragastric 0.75 mg-3 mg/Kg once/day, after 8 weeks): 12.06%
mRNA level of UGN in the ileum (Guca2b): increased significantly
